pIC50, pKi: −log10 of the molar value.
How the values were obtained:
[1] = molecular target: T1, TORC1 (Saccharomyces cerevisiae, UniProt P35169); assay: Yeast TORC1 kinase activity assays (radioactive IVK, Lst4^Loop substrate); assay type: biochemical; conditions: for In vitro TORC1 kinase assay - CoA compounds, relative activity, Mean: Fig. 8b; for In vitro TORC1 kinase assay - Mal-CoA/ATP competition, relative activity, Mean: Fig. 8h
T1 construct: made in house; host or cells: S. cerevisiae strain NIC005 ([RL170-2c] LEU2:GFP-TOR1)
Procedure: TORC1 was purified from yeast cells and radioactive IVK assays were performed essentially as previously described. Briefly, kinase reactions (total volume, 30 μl) were performed with 400 ng of purified His6–Lst4^Loop protein and 60 ng TORC1 in kinase buffer (50 mM HEPES NaOH pH 7.5 and 150 mM NaCl). […] All reactions were carried out at 30 °C for 10 min and stopped with the addition of 3×sample buffer (50 mM Tris–HCl pH 6.8, 5% SDS, 0.05% bromophenol blue, 630 mM DTT and 30% glycerol) and heating at 65 °C for 10 min. Proteins were separated by SDS–PAGE and stained in-gel with SYPRO Ruby (S4942, Sigma-Aldrich) as the loading control. Substrate phosphorylation was analysed by autoradiography using a Typhoon FLA 9500 phosphorimager (GE Healthcare) and the raw density of the signals was quantified using the gel analysis tool of ImageJ.

[2] = tested on: recombinant human MCD (Mal-CoA decarboxylase); conditions: read-out: apparent Michaelis constant (Km) of recombinant human MCD for Mal-CoA; cited from earlier work
[3] = tested on: mTORC1; assay: mTORC1 activity in MCF-7 cells, p-S6K^T389/S6K immunoblot; assay type: cell-based, human; conditions: cerulenin 50 μM 2 or 4 h

T1 sequence (P35169 whole entry): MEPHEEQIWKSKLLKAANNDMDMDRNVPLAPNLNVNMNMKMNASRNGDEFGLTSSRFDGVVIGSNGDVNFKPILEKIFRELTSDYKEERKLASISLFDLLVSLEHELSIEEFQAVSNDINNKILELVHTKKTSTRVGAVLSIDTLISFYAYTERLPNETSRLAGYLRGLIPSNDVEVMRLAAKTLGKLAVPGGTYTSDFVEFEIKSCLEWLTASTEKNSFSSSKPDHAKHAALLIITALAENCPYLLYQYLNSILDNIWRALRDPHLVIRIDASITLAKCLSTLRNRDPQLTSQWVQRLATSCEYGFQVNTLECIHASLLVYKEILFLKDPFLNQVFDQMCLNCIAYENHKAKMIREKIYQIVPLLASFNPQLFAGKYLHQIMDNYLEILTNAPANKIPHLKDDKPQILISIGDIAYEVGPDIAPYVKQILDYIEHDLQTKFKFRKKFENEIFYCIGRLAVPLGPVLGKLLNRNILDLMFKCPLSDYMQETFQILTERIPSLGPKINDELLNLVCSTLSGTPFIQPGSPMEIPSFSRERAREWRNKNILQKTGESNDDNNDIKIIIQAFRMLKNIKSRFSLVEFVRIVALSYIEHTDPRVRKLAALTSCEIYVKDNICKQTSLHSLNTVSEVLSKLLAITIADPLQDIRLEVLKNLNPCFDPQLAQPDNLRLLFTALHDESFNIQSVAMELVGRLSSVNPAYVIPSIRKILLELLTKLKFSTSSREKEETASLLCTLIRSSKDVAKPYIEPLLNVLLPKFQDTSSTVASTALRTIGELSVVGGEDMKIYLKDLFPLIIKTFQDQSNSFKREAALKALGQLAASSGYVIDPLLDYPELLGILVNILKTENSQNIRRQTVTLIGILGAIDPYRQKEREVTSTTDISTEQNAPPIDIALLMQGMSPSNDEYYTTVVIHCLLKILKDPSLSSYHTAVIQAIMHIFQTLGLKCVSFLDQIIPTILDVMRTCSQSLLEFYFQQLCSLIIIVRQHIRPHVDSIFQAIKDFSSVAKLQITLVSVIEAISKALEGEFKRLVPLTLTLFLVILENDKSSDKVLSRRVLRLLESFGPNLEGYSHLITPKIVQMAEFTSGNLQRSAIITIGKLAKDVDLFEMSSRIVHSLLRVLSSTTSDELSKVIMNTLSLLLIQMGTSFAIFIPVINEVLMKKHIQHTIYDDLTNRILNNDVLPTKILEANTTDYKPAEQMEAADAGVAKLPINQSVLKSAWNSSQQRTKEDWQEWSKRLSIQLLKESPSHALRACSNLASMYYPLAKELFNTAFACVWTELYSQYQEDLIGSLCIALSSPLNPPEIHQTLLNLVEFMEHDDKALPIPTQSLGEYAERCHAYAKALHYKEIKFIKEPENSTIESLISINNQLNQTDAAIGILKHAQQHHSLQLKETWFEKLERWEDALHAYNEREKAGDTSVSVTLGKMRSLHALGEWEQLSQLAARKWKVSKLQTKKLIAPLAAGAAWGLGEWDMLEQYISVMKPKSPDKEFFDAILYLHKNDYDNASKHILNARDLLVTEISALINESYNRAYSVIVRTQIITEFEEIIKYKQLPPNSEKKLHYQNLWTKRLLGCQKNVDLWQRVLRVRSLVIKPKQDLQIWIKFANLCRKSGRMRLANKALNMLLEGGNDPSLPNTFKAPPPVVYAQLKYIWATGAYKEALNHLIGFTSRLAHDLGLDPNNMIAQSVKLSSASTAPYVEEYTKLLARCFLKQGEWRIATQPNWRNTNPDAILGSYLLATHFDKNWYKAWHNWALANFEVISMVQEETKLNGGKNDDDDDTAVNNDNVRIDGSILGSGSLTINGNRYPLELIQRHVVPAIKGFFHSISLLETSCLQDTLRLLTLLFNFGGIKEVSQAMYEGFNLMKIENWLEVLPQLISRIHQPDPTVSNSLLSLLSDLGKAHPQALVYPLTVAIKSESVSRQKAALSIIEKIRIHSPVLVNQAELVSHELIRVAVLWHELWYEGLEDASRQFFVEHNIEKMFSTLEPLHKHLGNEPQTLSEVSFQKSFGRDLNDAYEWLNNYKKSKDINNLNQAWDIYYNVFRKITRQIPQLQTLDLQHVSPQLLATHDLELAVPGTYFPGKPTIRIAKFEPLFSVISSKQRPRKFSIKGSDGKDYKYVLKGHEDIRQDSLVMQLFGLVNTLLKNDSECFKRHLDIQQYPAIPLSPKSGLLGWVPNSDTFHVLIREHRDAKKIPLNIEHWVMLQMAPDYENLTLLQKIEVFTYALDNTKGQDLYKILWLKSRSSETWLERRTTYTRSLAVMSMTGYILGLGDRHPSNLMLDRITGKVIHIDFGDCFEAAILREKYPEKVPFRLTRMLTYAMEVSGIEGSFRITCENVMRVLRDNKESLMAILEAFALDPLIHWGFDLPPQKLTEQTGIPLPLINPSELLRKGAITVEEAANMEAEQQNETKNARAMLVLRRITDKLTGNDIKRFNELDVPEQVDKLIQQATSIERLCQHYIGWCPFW
T1 sequence (Q08921 whole entry partner): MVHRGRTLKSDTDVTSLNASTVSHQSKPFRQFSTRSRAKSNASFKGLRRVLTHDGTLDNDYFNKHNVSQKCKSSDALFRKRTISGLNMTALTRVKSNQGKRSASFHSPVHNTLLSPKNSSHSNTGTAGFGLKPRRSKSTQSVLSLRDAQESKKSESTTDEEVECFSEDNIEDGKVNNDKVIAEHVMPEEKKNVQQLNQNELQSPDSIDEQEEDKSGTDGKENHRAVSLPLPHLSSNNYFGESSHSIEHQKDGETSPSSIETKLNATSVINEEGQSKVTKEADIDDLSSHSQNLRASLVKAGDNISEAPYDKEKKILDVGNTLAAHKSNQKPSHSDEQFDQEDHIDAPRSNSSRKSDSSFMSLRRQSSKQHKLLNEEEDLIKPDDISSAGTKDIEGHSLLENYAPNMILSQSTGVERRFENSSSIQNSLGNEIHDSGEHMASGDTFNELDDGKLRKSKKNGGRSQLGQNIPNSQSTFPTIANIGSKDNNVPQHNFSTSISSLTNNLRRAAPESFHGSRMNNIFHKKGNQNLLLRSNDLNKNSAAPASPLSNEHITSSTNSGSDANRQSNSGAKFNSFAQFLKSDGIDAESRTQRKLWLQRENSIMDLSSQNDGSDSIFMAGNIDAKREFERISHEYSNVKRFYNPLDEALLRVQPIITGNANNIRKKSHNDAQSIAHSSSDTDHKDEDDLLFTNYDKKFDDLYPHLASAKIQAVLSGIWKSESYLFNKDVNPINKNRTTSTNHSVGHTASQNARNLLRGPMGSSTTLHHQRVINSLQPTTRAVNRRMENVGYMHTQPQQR
T1 sequence (P38873 whole entry partner): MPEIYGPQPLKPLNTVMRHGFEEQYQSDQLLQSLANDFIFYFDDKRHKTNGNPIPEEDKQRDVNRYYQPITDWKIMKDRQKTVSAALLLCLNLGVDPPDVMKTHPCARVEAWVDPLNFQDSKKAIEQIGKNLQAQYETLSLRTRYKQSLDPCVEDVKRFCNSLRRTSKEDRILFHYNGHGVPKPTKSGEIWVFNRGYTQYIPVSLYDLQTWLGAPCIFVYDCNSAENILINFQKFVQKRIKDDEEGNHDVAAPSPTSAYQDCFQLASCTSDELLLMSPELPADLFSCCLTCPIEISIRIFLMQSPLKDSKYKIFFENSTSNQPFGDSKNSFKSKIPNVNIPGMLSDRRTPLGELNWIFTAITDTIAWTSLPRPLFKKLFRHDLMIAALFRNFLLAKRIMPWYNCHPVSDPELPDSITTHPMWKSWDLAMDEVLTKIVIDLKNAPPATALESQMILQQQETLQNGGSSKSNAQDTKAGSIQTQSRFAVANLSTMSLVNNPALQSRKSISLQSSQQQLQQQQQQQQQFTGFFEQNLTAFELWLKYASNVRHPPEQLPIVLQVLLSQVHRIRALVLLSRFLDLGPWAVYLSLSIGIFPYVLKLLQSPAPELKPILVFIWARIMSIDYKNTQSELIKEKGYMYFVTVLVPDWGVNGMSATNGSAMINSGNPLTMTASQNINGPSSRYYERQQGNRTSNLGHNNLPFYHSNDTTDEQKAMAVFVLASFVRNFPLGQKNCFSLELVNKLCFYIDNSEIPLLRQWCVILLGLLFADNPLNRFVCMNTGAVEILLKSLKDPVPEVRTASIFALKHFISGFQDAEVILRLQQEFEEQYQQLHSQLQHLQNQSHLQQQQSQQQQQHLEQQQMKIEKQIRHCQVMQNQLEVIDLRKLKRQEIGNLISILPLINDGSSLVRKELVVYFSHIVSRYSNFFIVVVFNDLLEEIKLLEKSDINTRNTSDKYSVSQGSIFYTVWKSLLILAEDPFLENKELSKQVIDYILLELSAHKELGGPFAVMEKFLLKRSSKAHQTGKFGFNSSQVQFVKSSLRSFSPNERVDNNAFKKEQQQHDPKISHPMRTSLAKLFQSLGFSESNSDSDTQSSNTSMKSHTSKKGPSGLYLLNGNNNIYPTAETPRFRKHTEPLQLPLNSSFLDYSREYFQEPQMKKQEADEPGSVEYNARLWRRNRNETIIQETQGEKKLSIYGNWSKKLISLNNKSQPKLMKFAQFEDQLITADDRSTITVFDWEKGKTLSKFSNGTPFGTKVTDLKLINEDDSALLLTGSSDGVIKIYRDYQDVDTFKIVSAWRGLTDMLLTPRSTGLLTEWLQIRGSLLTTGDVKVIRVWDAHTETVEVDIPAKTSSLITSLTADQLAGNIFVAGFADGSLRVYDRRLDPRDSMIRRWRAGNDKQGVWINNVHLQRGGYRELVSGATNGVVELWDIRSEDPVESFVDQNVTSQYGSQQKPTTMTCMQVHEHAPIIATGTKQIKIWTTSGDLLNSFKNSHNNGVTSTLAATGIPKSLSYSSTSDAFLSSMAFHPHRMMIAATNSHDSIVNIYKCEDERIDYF
T1 sequence (P41318 whole entry partner): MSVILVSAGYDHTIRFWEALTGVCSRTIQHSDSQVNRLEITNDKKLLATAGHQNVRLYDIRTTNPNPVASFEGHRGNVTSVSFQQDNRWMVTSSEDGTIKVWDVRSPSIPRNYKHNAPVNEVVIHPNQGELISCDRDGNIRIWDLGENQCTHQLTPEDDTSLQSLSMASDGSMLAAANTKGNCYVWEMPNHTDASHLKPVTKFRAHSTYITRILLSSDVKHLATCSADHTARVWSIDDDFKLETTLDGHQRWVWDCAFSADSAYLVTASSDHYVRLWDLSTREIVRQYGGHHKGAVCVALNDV

CC(C)(COP(=O)(O)OP(=O)(O)OCC1OC(n2cnc3c(N)ncnc32)C(O)C1OP(=O)(O)O)C(O)C(=O)NCCC(=O)NCCSC(=O)CC(=O)O (centres unmarked) [Mal-CoA, malonyl-CoA]
pIC50 [1]: 3.48
pKi [1]: 3.12
In vitro TORC1 kinase assay - CoA compounds, relative activity, Mean ([1]; compound 0.073 mM, normalised to this concentration): 1
In vitro TORC1 kinase assay - CoA compounds, relative activity, Mean ([1]; compound 0.22 mM): 0.8807
In vitro TORC1 kinase assay - CoA compounds, relative activity, Mean ([1]; compound 2 mM): 0.6407
In vitro TORC1 kinase assay - CoA compounds, relative activity, Mean ([1]; compound 6 mM): 0.5014
In vitro TORC1 kinase assay - Mal-CoA/ATP competition, relative activity, Mean ([1]; Mal-CoA 2 mM, ATP 0.015 mM): 0.1115
In vitro TORC1 kinase assay - Mal-CoA/ATP competition, relative activity, Mean ([1]; Mal-CoA 2 mM, ATP 0.044 mM): 0.189
In vitro TORC1 kinase assay - Mal-CoA/ATP competition, relative activity, Mean ([1]; Mal-CoA 2 mM, ATP 0.4 mM): 0.6161
In vitro TORC1 kinase assay - Mal-CoA/ATP competition, relative activity, Mean ([1]; Mal-CoA […], ATP 0.015 mM): 0.1191
In vitro TORC1 kinase assay - Mal-CoA/ATP competition, relative activity, Mean ([1]; Mal-CoA […], ATP 0.044 mM): 0.2424
In vitro TORC1 kinase assay - Mal-CoA/ATP competition, relative activity, Mean ([1]; Mal-CoA […], ATP 0.4 mM): 0.6289
Km [2]: 220 to 520 µM

C/C=C/C/C=C/CCC(=O)[C@H]1O[C@H]1C(N)=O [cerulenin]
mTORC1 activity in MCF-7 [3]: downregulates

Reference: publication PMC10495264 (Nature Cell Biology, 2023)
